Assays:
[1] = biological target: JAK1 (recombinant purified GST-tagged catalytic domain) (Homo sapiens (Human), UniProt P23458); assay: Jak Biochemical HTRF Assay (JAK1); details: [ATP] 31.8 μM
Summary of the method: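 GST-tagged human catalytic domains of JAK1 or JAK2 phosphorylated a biotinylated peptide substrate for 120 min at room temperature after ATP addition. Reaction quenched with EDTA stop buffer containing streptavidin-Dylight 650 and Eu-pY20 antibody; HTRF 665/615 nm ratio normalized to untreated controls, IC50 from 4-parameter fit.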

[2] = biological target: JAK2 (recombinant purified GST-tagged catalytic domain) (Homo sapiens (Human), UniProt O60674); assay: Jak Biochemical HTRF Assay (JAK2); details: [ATP] 8.5 μM
JAK2 (recombinant purified GST-tagged catalytic domain), sequence (O60674 849-1124): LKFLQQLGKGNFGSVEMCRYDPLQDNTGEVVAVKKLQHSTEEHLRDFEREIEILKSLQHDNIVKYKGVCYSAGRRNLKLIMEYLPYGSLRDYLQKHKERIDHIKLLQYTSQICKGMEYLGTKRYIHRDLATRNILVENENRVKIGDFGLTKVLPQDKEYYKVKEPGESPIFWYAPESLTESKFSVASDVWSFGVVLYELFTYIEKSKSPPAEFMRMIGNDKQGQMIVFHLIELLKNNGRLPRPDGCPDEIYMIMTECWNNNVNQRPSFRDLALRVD

JAK1 (recombinant purified GST-tagged catalytic domain), sequence (P23458 875-1153): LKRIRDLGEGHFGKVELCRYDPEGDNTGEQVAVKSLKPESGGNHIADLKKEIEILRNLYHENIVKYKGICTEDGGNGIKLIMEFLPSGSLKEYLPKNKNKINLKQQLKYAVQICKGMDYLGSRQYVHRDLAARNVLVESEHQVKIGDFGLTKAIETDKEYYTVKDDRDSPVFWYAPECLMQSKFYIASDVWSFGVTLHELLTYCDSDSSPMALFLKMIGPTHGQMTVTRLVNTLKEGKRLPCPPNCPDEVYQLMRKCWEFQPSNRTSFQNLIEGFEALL

| Compound | IC50 [1] | IC50 [2] |
| --- | --- | --- |
| Cc1cc(Nc2nn([C@]3(CC#N)CC[C@@H](C(=O)OC(C)(C)C)OC3)c3cc[nH]c(=O)c23)ccc1C(=O)N1CC(C)OC(C)C1 (single isomer, unassigned) [Example 20-13, (2S,5S)-tert-butyl 5-(cyanomethyl)-5-(3-((4-((2S,6S or 2R,6R)-2,6-dimethylmorpholine-4-carbonyl)-3-methylphenyl)amino)-4-oxo-4,5-dihydro-1H-pyrazolo[4,3-c]pyridin-1-yl)tetrahydro-2H-pyran-2-carboxylate] | 0.22 nM | 0.26 nM |
| CO[C@H](c1ccc(Nc2nn([C@]3(CC#N)CC[C@@H](C(=O)OC(C)(C)C)OC3)c3cc[nH]c(=O)c23)cc1)C(F)(F)F (single isomer, unassigned) [Example 21-7, (2S,5S)-tert-butyl 5-(cyanomethyl)-5-(4-oxo-3-((4-((R or S)-2,2,2-trifluoro-1-methoxyethyl)phenyl)amino)-4,5-dihydro-1H-pyrazolo[4,3-c]pyridin-1-yl)tetrahydro-2H-pyran-2-carboxylate] | 0.41 nM | 0.9 nM |
| CO[C@@H](c1ccc(Nc2nn([C@]3(CC#N)CC[C@@H](C(=O)OC(C)(C)C)OC3)c3cc[nH]c(=O)c23)cc1)C(F)(F)F (single isomer, unassigned) [Example 21-8, (2S,5S)-tert-butyl 5-(cyanomethyl)-5-(4-oxo-3-((4-((S or R)-2,2,2-trifluoro-1-methoxyethyl)phenyl)amino)-4,5-dihydro-1H-pyrazolo[4,3-c]pyridin-1-yl)tetrahydro-2H-pyran-2-carboxylate] | 0.38 nM | 1.03 nM |
| CO[C@H](c1ccc(Nc2nn(C3(CC#N)CCN(C(=O)OC(C)(C)C)CC3)c3cc[nH]c(=O)c23)cc1)C(F)(F)F (single isomer, unassigned) [Example 21-9, tert-butyl 4-(cyanomethyl)-4-[4-oxo-3-({4-[(1R or 1S)-2,2,2-trifluoro-1-methoxyethyl]phenyl}amino)-4,5-dihydro-1H-pyrazolo[4,3-c]pyridin-1-yl]piperidine-1-carboxylate] | 1.11 nM | 1.96 nM |
| CO[C@@H](c1ccc(Nc2nn(C3(CC#N)CCN(C(=O)OC(C)(C)C)CC3)c3cc[nH]c(=O)c23)cc1)C(F)(F)F (single isomer, unassigned) [Example 21-10, tert-butyl 4-(cyanomethyl)-4-[4-oxo-3-({4-[(1S or 1R)-2,2,2-trifluoro-1-methoxyethyl]phenyl}amino)-4,5-dihydro-1H-pyrazolo[4,3-c]pyridin-1-yl]piperidine-1-carboxylate] | 0.97 nM | 1.95 nM |
| CC(C)(C)OC(=O)N1CCC(CC#N)(n2nc(Nc3ccc([C@]4(C(F)(F)F)CCCCN4)cc3)c3c(=O)[nH]ccc32)CC1 (single isomer, unassigned) [Example 21-16, (S or R)-tert-butyl 4-(cyanomethyl)-4-(4-oxo-3-(4-(2-(trifluoromethyl)piperidin-2-yl)phenylamino)-4,5-dihydropyrazolo[4,3-c]pyridin-1-yl)piperidine-1-carboxylate] | 0.71 nM | 0.64 nM |
| CC(C)(C)OC(=O)N1CCC(CC#N)(n2nc(Nc3ccc([C@@]4(C(F)(F)F)CCCCN4)cc3)c3c(=O)[nH]ccc32)CC1 (single isomer, unassigned) [Example 21-17, (R or S)-tert-butyl 4-(cyanomethyl)-4-(4-oxo-3-(4-(2-(trifluoromethyl)piperidin-2-yl)phenylamino)-4,5-dihydropyrazolo[4,3-c]pyridin-1-yl)piperidine-1-carboxylate] | 0.63 nM | 0.58 nM |
| CC(C)(C)OC(=O)N1CCC(CC#N)(n2nc(Nc3ccc([C@@]4(C(F)(F)F)CCCN4)cc3)c3c(=O)[nH]ccc32)CC1 (single isomer, unassigned) [Example 21-18, (R or S)-tert-butyl 4-(cyanomethyl)-4-(4-oxo-3-(4-(2-(trifluoromethyl)pyrrolidin-2-yl)phenylamino)-4,5-dihydropyrazolo[4,3-c]pyridin-1-yl)piperidine-1-carboxylate] | 0.55 nM | 0.5 nM |
| CC(C)(C)OC(=O)N1CCC(CC#N)(n2nc(Nc3ccc([C@]4(C(F)(F)F)CCCN4)cc3)c3c(=O)[nH]ccc32)CC1 (single isomer, unassigned) [Example 21-19, (S or R)-tert-butyl 4-(cyanomethyl)-4-(4-oxo-3-(4-(2-(trifluoromethyl)pyrrolidin-2-yl)phenylamino)-4,5-dihydropyrazolo[4,3-c]pyridin-1-yl)piperidine-1-carboxylate] | 0.45 nM | 0.5 nM |
| Cc1cc(Nc2nn(C3(CC#N)CCN(c4ccc(C#N)cn4)CC3F)c3cc[nH]c(=O)c23)ccc1C(=O)N1CCSCC1 (stereo in doubt) [Example 15-6, 6-((3R,4R)-4-(cyanomethyl)-3-fluoro-4-(3-((3-methyl-4-(thiomorpholine-4-carbonyl)phenyl)amino)-4-oxo-4,5-dihydro-1H-pyrazolo[4,3-c]pyridin-1-yl)piperidin-1-yl)nicotinonitrile] | 0.1 nM | 0.09 nM |
| Cc1nc2ccc(Nc3nn(C4(CC#N)CCCOC4)c4cc[nH]c(=O)c34)cc2s1 (stereo in doubt) [Example 21-5, [(3S)-3-{3-[(2-methyl-1,3-benzothiazol-6-yl)amino]-4-oxo-4,5-dihydro-1H-pyrazolo[4,3-c]pyridin-1-yl}tetrahydro-2H-pyran-3-yl]acetonitrile] | 0.09 nM | 1.32 nM |
| CC(C)(C)OC(=O)N1CC(CC#N)(n2nc(Nc3ccccc3)c3c(=O)[nH]ccc32)C1 [Example 1-1, tert-butyl 3-(cyanomethyl)-3-(4-oxo-3-(phenylamino)-4,5-dihydro-1H-pyrazolo[4,3-c]pyridin-1-yl)azetidine-1-carboxylate] | 2.23 nM | 25 nM |
| CC(C)(C)OC(=O)N1CCC(CC#N)(n2nc(Nc3ccccc3)c3c(=O)[nH]ccc32)CC1 [Example 1-2, tert-butyl 4-(cyanomethyl)-4-(4-oxo-3-(phenylamino)-4,5-dihydro-1H-pyrazolo[4,3-c]pyridin-1-yl)piperidine-1-carboxylate] | 0.45 nM | 11.9 nM |
| CCNc1nn(C2(CC#N)CCN(C(=O)OC(C)(C)C)CC2)c2cc[nH]c(=O)c12 [Example 2-1, tert-butyl 4-(cyanomethyl)-4-[3-(ethylamino)-4-oxo-4,5-dihydro-1H-pyrazolo[4,3-c]pyridin-1-yl]piperidine-1-carboxylate] | 48.2 nM | 60.3 nM |
| CC(C)(C)OC(=O)N1CCC(CC#N)(n2nc(NCC3CC3)c3c(=O)[nH]ccc32)CC1 [Example 2-2, tert-butyl 4-(cyanomethyl)-4-{3-[(cyclopropylmethyl)amino]-4-oxo-4,5-dihydro-1H-pyrazolo[4,3-c]pyridin-1-yl}piperidine-1-carboxylate] | 49.9 nM | 39.8 nM |
| CC(C)(C)OC(=O)N1CCC(CC#N)(n2nc(NC3CCC3)c3c(=O)[nH]ccc32)CC1 [Example 2-3, tert-butyl 4-(cyanomethyl)-4-[3-(cyclobutylamino)-4-oxo-4,5-dihydro-1H-pyrazolo[4,3-c]pyridin-1-yl]piperidine-1-carboxylate] | 67.6 nM | > 1500 nM |
| CCNc1nn(C2(CC#N)CN(C(=O)OC(C)(C)C)C2)c2cc[nH]c(=O)c12 [Example 2-4, tert-butyl 3-(cyanomethyl)-3-[3-(ethylamino)-4-oxo-4,5-dihydro-1H-pyrazolo [4,3-c]pyridin-1-yl] azetidine-1-carboxylate] | 208 nM | > 1480 nM |
| CNc1nn(C2(CC#N)CCN(C(=O)OC(C)(C)C)CC2)c2cc[nH]c(=O)c12 [Example 2-5, tert-butyl 4-(cyanomethyl)-4-[3-(methylamino)-4-oxo-4,5-dihydro-1H-pyrazolo [4,3-c]pyridin-1-yl] piperidine-1-carboxylate] | 20.3 nM | 490 nM |
| CC(C)(C)OC(=O)N1CC(CC#N)(n2nc(NC3CC3)c3c(=O)[nH]ccc32)C1 [Example 3, tert-butyl 3-(cyanomethyl)-3-[3-(cyclopropylamino)-4-oxo-4,5-dihydro-1H-pyrazolo[4,3-c]pyridin-1-yl]azetidine-1-carboxylate] | 40.8 nM | 2.51 nM |
| CC(C)(C)OC(=O)N1CC(CC#N)(n2nc(Nc3ccnc(C(F)(F)F)c3)c3c(=O)[nH]ccc32)C1 [Example 4-1, tert-butyl 3-(cyanomethyl)-3-(4-oxo-3-((2-(trifluoromethyl)pyridin-4-yl)amino)-4,5-dihydro-1H-pyrazolo[43-c]pyridin-1-yl)azetidine-1-carboxylate] | 32.9 nM | 218 nM |
| CC(C)(C)OC(=O)N1CC(CC#N)(n2nc(Nc3ccc(F)cc3)c3c(=O)[nH]ccc32)C1 [Example 4-3, tert-butyl 3-(cyanomethyl)-3-(3-((4-fluorophenyl)amino)-4-oxo-4,5-dihydro-1H-pyrazolo[4,3-c]pyridin-1-yl)azetidine-1-carboxylate] | 2.64 nM | 36 nM |
| CN(C)S(=O)(=O)c1ccc(Nc2nn(C3(CC#N)CCN(C(=O)OC(C)(C)C)CC3)c3cc[nH]c(=O)c23)cc1 [Example 5-1, tert-butyl 4-(cyanomethyl)-4-(3-((4-(N,N-dimethylsulfamoyl)phenyl)amino)-4-oxo-4,5-dihydro-1H-pyrazolo[4,3-c]pyridin-1-yl)piperidine-1-carboxylate] | 0.22 nM | 0.28 nM |
| CC(C)(C)OC(=O)N1CCC(CC#N)(n2nc(Nc3ccc(S(N)(=O)=O)cc3)c3c(=O)[nH]ccc32)CC1 [Example 5-4, tert-butyl 4-(cyanomethyl)-4-{4-oxo-3-[(4-sulfamoylphenyl)amino]-4,5-dihydro-1H-pyrazolo[4,3-c]pyridin-1-yl}piperidine-1-carboxylate] | 0.12 nM | 0.23 nM |

Source: US9957264B2 (Merck Sharp & Dohme Corp., priority 2013, dated 2018)
